Patent US20120149576A1, “METHOD FOR CULTIVATING CROP PLANT” (SUMITOMO CHEMICAL COMPANY, LIMITED, priority 2009, published 2012)

Legend:
[1] = test system: recombinant tobacco line P-6-1 (progeny) leaf discs; test: Resistance test using leaf discs on MS agar medium supplemented with saflufenacil; type: cell-based; settings: for Score of adverse effects (browning or chlorosis) on leaf disc / Ratio of green area to leaf disc area (%): P-6-1; for Score of adverse effects (browning or chlorosis) on leaf disc: 5 plants; for Ratio of green area to leaf disc area (%): image analysis of FIG. 1, day 8
Procedure: P-6-1; DNA encoding the amino acid sequence of SEQ ID NO:1 and DNA encoding the amino acid sequence of SEQ ID NO:3;
(§1) Homozygote seeds of the recombinant tobacco lines 1609soy#25 and P023, which are described in EP1598423, and progeny seeds of the recombinant tobacco line P-6-1, which is also described in EP1598423, were aseptically sown on MS agar medium supplemented with 100 mg/L kanamycin and screened for plants with kanamaycin resistance. Leaf discs were prepared by cutting true leaves of the selected plants at 1 month after sowing, and placed on MS agar medium supplemented with 0.01 ppm, 0.03 ppm or 0.10 ppm saflufenacil. As negative control, seeds of wild-type SR-1 tobacco plants were aseptically sown on MS agar medium and, similarly, leaf discs were prepared by cutting true leaves of the plants at 1 month after sowing, and placed on MS agar medium supplemented with 0.01 ppm, 0.03 ppm or 0.10 ppm saflufenacil.
(§2) The leaf discs were prepared from 5 individual plants for each experimental plot. Scoring evaluation was conducted according to the degrees of adverse effects manifested as browning or chlorosis. The scoring criteria are as follows:
(§3) In the photograph shown in FIG. 1, the green-colored portions were color extracted using the image analysis software “Win ROOF ver.6.1.0” (MITANI Corporation) and their area was quantified. This was then divided by the area calculated by subtracting the area of the medium from the entire area of the image, thereby calculating the percentage of the area of the green-colored portions to the area of the leaf disc.

[2] = test system: recombinant tobacco line P023 leaf discs; test: as above; type: cell-based; settings: for Score of adverse effects (browning or chlorosis) on leaf disc / Ratio of green area to leaf disc area (%): P023; for Score of adverse effects (browning or chlorosis) on leaf disc / Observed adverse effect on leaf discs: day 8; for Score of adverse effects (browning or chlorosis) on leaf disc: 5 plants; for Ratio of green area to leaf disc area (%): image analysis of FIG. 1, day 8; for Observed adverse effect on leaf discs: recombinant tobacco line P023
Procedure: : DNA encoding the amino acid sequence of SEQ ID NO:3; Homozygote seeds of the recombinant tobacco lines 1609soy#25 and […], which are described in EP1598423, and progeny seeds of the recombinant tobacco line P-6-1, which is also described in EP1598423, were aseptically sown on MS agar medium supplemented with 100 mg/L kanamycin and screened for plants with […] resistance. Leaf discs were prepared by cutting true leaves of the selected plants at 1 month after sowing, and placed on MS agar medium supplemented with 0.01 ppm, 0.03 ppm or 0.10 ppm saflufenacil. As negative control, seeds of wild-type SR-1 tobacco plants were aseptically sown on MS agar medium and, similarly, leaf discs were prepared by cutting true leaves of the plants at 1 month after sowing, and placed on MS agar medium supplemented with 0.01 ppm, 0.03 ppm or 0.10 ppm saflufenacil. […] The leaf discs were prepared from 5 individual plants for each experimental plot. Scoring evaluation was conducted according to the degrees of adverse effects manifested as browning or chlorosis. The scoring criteria are as follows: In the photograph shown in FIG. 1, the green-colored portions were color extracted using the image analysis software “Win ROOF ver.6.1.0” (MITANI Corporation) and their area was quantified. This was then divided by the area calculated by subtracting the area of the medium from the entire area of the image, thereby calculating the percentage of the area of the green-colored portions to the area of the leaf disc.

[3] = test system: recombinant soybean lines J16, J18, J26 and J28; test: Resistance test using a spreader: soybean; type: in vivo; settings: spray application as in Example 2, about two weeks later
Procedure: Seeds of the T2 generation of the recombinant soybean lines J16, […], J26 and J28, which are described in US20060009361, are aseptically sown in the culture pots charged with Kureha soil and grown for about 3 weeks in the phytotron. As negative control, seeds of a wild-type soybean (cv. Jack) are similarly grown in the phytotron. The plants thus obtained are subjected to the saflufenacil application test. The application test is conducted according to the method described above in Example 2. About two weeks later, the susceptibility of the tested recombinant soybean plants to saflufenacil is compared with that of the wild-type soybean plants (cv. Jack) to saflufenacil.

[4] = test system: recombinant tobacco lines 1609soy#17 and #25, 1584soy#16, P023, and 35S-2; test: Resistance test using a spreader: tobacco; type: in vivo; settings: spray application with automatic spreader; about two weeks later; homozygotes of 1609soy#17, #25, 1584soy#16, P023, 35S-2
Excerpt: Homozygote seeds of the recombinant tobacco lines 1609soy#17 and #25, 1584soy#16, […], and 35S-2, which are described in EP1598423, are aseptically sown on MS agar medium. Subsequently, the germinated individuals are transferred to culture pots charged with Kureha soil (Kureha Chemicals) and acclimated to the outdoor environment in the phytotron. They are than grown for two weeks in the phytotron. As negative control, seeds of wild-type SR-1 tobacco plants are aseptically sown on MS agar medium and, similarly grown in the phytotron. The plants thus obtained are subjected to the saflufenacil application test. The spray solution is prepared by dissolving saflufenacil in an appropriate solvent, adding an adjuvant, and diluting it with water. Application of the spray solution to the plants are conducted using an wheeled automatic spreader (Mamba Architect Office), by homogenously spraying 20 mL of the solution onto the seedlings of the recombinant and wild-type tobacco plants placed within a 0.9 square-meter area to which the solution is applied. About two weeks later, the susceptibility of the tested recombinant tobacco plants to saflufenacil is compared with that of the wild-type SR-1 tobacco plants to saflufenacil. […] Scoring evaluation is conducted according to the degrees of adverse effects manifested as death of individual plants, or browning or chlorosis of the leaves or stems.

[5] = test system: recombinant tobacco line 1609soy#25 leaf discs; test: Resistance test using leaf discs on MS agar medium supplemented with saflufenacil; type: cell-based; settings: for Score of adverse effects (browning or chlorosis) on leaf disc / Ratio of green area to leaf disc area (%): 1609soy#25; for Score of adverse effects (browning or chlorosis) on leaf disc / Observed adverse effect on leaf discs: day 8; for Score of adverse effects (browning or chlorosis) on leaf disc: 5 plants; for Ratio of green area to leaf disc area (%): image analysis of FIG. 1, day 8; for Observed adverse effect on leaf discs: recombinant tobacco line 1609soy#25
Procedure: 1609soy#25: DNA encoding the amino acid sequence of SEQ ID NO:1;
as §1, §2, §3

[6] = test system: wild-type SR-1 tobacco leaf discs; test: as above; type: cell-based; settings: for Score of adverse effects (browning or chlorosis) on leaf disc / Ratio of green area to leaf disc area (%): Wild-type SR-1; for Score of adverse effects (browning or chlorosis) on leaf disc / Observed adverse effect on leaf discs: day 8; for Score of adverse effects (browning or chlorosis) on leaf disc: 5 plants; for Ratio of green area to leaf disc area (%): image analysis of FIG. 1, day 8; for Observed adverse effect on leaf discs: wild-type SR-1 tobacco leaves
Procedure: as §1, §2, §3

CC(C)N(C)S(=O)(=O)NC(=O)c1cc(-n2c(=O)cc(C(F)(F)F)n(C)c2=O)c(F)cc1Cl [Saflufenacil, N′-{2-chloro-4-fluoro-5-[1,2,3,6-tetrahydro-3-methyl-2,6-dioxo-4-(trifluoromethyl)pyrimidine-1-yl]benzoyl}-N-isopropyl-N-methyl sulfamide]
Score of adverse effects (browning or chlorosis) on leaf disc ([1]; saflufenacil 0.01 ppm, day 8): 3.0 | Ratio of green area to leaf disc area (%) ([1]; saflufenacil 0.01 ppm): 87% | Score of adverse effects (browning or chlorosis) on leaf disc ([1]; saflufenacil 0.03 ppm, day 8): 2.6 | Ratio of green area to leaf disc area (%) ([1]; saflufenacil 0.03 ppm): 78% | Score of adverse effects (browning or chlorosis) on leaf disc ([1]; saflufenacil 0.10 ppm, day 8): 3.0 | Ratio of green area to leaf disc area (%) ([1]; saflufenacil 0.10 ppm): 83% | Observed adverse effect on leaf discs ([1]; progeny plants of recombinant tobacco line P-6-1, 0.10 ppm, day 8): no adverse effect | Score of adverse effects (browning or chlorosis) on leaf disc ([2]; saflufenacil 0.01 ppm): 3.0 | Ratio of green area to leaf disc area (%) ([2]; saflufenacil 0.01 ppm): 89% | Score of adverse effects (browning or chlorosis) on leaf disc ([2]; saflufenacil 0.03 ppm): 3.0 | Ratio of green area to leaf disc area (%) ([2]; saflufenacil 0.03 ppm): 86% | Score of adverse effects (browning or chlorosis) on leaf disc ([2]; saflufenacil 0.10 ppm): 2.0 | Ratio of green area to leaf disc area (%) ([2]; saflufenacil 0.10 ppm): 51% | Observed adverse effect on leaf discs ([2]; 0.10 ppm): partial chlorosis | Observed adverse effect on leaf discs ([2]; up to 0.03 ppm): no adverse effect | Susceptibility of recombinant soybean plants to saflufenacil compared with wild-type soybean (cv. Jack) [3]: lower susceptibility | Susceptibility of recombinant tobacco plants to saflufenacil compared with wild-type SR-1 [4]: lower susceptibility | Score of adverse effects (browning or chlorosis) on leaf disc ([5]; saflufenacil 0.01 ppm): 3.0 | Ratio of green area to leaf disc area (%) ([5]; saflufenacil 0.01 ppm): 85% | Score of adverse effects (browning or chlorosis) on leaf disc ([5]; saflufenacil 0.03 ppm): 2.0 | Ratio of green area to leaf disc area (%) ([5]; saflufenacil 0.03 ppm): 80% | Score of adverse effects (browning or chlorosis) on leaf disc ([5]; saflufenacil 0.10 ppm): 1.0 | Ratio of green area to leaf disc area (%) ([5]; saflufenacil 0.10 ppm): 8% | Observed adverse effect on leaf discs ([5]; 0.01 ppm): no adverse effect | Observed adverse effect on leaf discs ([5]; 0.03 ppm): partial browning | Observed adverse effect on leaf discs ([5]; 0.10 ppm): overall browning | Score of adverse effects (browning or chlorosis) on leaf disc ([6]; saflufenacil 0.01 ppm): 2.0 | Ratio of green area to leaf disc area (%) ([6]; saflufenacil 0.01 ppm): 77% | Score of adverse effects (browning or chlorosis) on leaf disc ([6]; saflufenacil 0.03 ppm): 1.0 | Ratio of green area to leaf disc area (%) ([6]; saflufenacil 0.03 ppm): 20% | Score of adverse effects (browning or chlorosis) on leaf disc ([6]; saflufenacil 0.10 ppm): 0.2 | Ratio of green area to leaf disc area (%) ([6]; saflufenacil 0.10 ppm): 2% | Observed adverse effect on leaf discs ([6]; 0.01 ppm): partial browning | Observed adverse effect on leaf discs ([6]; 0.10 ppm): overall chlorosis
